For the test, the target named is T1, hROMK (hKir1.1) (Homo sapiens, UniProt P48048).
T1 construct: expressed in transfected cells
T1 sequence (P48048 1-391): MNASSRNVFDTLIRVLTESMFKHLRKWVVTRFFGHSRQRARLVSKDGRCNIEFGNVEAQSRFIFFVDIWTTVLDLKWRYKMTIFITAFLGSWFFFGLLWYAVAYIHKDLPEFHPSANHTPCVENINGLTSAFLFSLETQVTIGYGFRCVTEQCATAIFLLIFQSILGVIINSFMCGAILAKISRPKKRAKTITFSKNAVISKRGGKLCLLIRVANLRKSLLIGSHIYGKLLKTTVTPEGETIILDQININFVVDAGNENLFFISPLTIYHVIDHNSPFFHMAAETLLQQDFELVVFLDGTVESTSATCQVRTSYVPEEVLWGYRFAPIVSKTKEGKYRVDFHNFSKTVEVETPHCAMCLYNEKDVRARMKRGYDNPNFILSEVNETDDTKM
The test is described as follows: Thallium Flux Assay. It is filed as cell-based. Summed up:
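HEK293 cells stably expressing hROMK, loaded with FluxOR dye 90 min at ambient temperature, then compound 30 min with 0.3 mM ouabain in probenecid buffer pH 7.4.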

The mark [1] stands for this setting: HEK293 cells stably expressing hROMK (hKir1.1), FLIPR-Tetra, read-out: Thallium Flux IC50.

Like-named read-outs stand apart in the source and are kept apart here.

IC50 data for 20 compounds are collected here from patent publication EP2790511B1 (Merck Sharp & Dohme Corp., priority 2011, dated 2013).

One may read the IC50 as the concentration needed to halve the response being measured. The compound `Cc1c([C@@H]2CN3CCN(C(=O)Cc4ccc(-n5cnnn5)nn4)C[C@@H]3CO2)ccc(F)c1C#N` [Example 156, 6-fluoro-2-methyl-3-[(3R,9aR)-8-{[6-(1H-tetrazol-1-yl)pyridazin-3-yl]acetyl}octahydropyrazino [2,1-c][1,4]oxazin-3-yl]benzonitrile] yielded a half-maximal inhibitory concentration (IC50) (Thallium Flux IC50) of 210 nM.
Under “Thallium Flux IC50”, `N#Cc1c(F)cc([C@@H]2CN3CCN(C(=O)Cc4cnc(-n5cnnn5)nc4)C[C@@H]3CO2)cc1F` [Example 115, 2,6-difluoro-4-[(3R,9aR)-8-{[2-(1H-tetrazol-1-yl)pyrimidin-5-yl]acetyl}octahydropyrazino[2,1-c][1,4]oxazin-3-yl]benzonitrile] displayed an IC50 of 270 nM.
With `Cc1c([C@H]2CN3CCN(C(=O)Cc4ccc(-n5cnnn5)nn4)C[C@H]3CO2)ccc(F)c1C#N` [Example 155, 6-fluoro-2-methyl-3-[(3S,9aS)-8-{[6-(1H-tetrazol-1-yl)pyridazin-3-yl]acetyl}octahydropyrazino [2,1-c][1,4]oxazin-3-yl]benzonitrile], the IC50 under setting [1] is 300 nM.
Under “Thallium Flux IC50”, `Cc1c([C@H]2CN3CCN(C(=O)Cc4cnc(-n5cnnn5)nc4)C[C@@H]3CO2)ccc(F)c1C#N` [Example 9, 6-fluoro-2-methyl-3-[(3S,9aR)-8-{[2-(1H-tetrazol-1-yl)pyrimidin-5-yl]acetyl}octahydropyrazino[2,1-c][1,4]oxazin-3-yl]benzonitrile] came in with an IC50 of 180 nM.
The compound `Cc1c([C@@H]2CN3CCN(C(=O)Cc4cnc(-n5cnnn5)cn4)C[C@@H]3CO2)ccc2c1COC2=O` [Example 123, 4-methyl-5-[(3R,9aR)-8-{[5-(1H-tetrazol-1-yl)pyrazin-2-yl]acetyl}octahydropyrazino[2,1-c] [1,4]oxazin-3-yl]-2-benzofuran-1(3H)-one] displayed an IC50 (Thallium Flux IC50) of 690 nM.
In the case of `Cc1nc(-n2cnnn2)nc(C)c1CC(=O)N1CCN2C[C@@H](c3ccc(F)c(C#N)c3C)OC[C@H]2C1` [Example 152, 3-[(3R,9aR)-8-{[4,6-dimethyl-2-(1H-tetrazol-1-yl)pyrimidin-5-yl]acetyl}octahydropyrazino[2,1-c][1,4]oxazin-3-yl]-6-fluoro-2-methylbenzonitrile], the IC50 under setting [1] was determined as 200 nM.
With `COc1ccc([C@@H]2CN3CCN(C(=O)Cc4cnc(-n5cnnn5)nc4)C[C@H]3CO2)c(C)c1C#N` [Example 135, 6-methoxy-2-methyl-3-[(3R,9aS)-8-{[2-(1H-tetrazol-1-vl)pvrimidin-5-yl]acetyl}octahydropyrazino[2,1-c][1,4]oxazin-3-yl]benzonitrile], the midpoint of inhibition (Thallium Flux IC50), the IC50, lay at 330 nM.
In the case of `Cc1c([C@@H]2CN3CCN(C(=O)Cc4ccnc(-n5cnnn5)c4)C[C@H]3CO2)ccc(F)c1C#N` [Example 99, 6-fluoro-2-methyl-3-[(3R,9aS)-8-{[2-(1H-tetrazol-1-yl)pyridin-4-yl]acetyl}octahydropyrazino[2,1-c][1,4]oxazin-3-yl]benzonitrile], the IC50 under setting [1] amounted to 340 nM.
Turning to `Cc1c([C@H]2CN3CCN(C(=O)Cc4ccc(-n5cnnn5)cn4)C[C@H]3CN2)ccc(F)c1C#N` [Example 191, 6-fluoro-2-methyl-3-[(3S,9aR)-8-{[5-(1H-tetrazol-1-yl)pyridin-2-yl]acetyl}octahydro-2H-pyrazino[1,2-a]pyrazin-3-yl]benzonitrile], the concentration for half-maximal inhibition (IC50) under setting [1] was determined as 120 nM.
With `N#Cc1c(F)ccc([C@H]2CN3CCN(C(=O)Cc4ccc(-n5cnnn5)cn4)C[C@H]3CO2)c1F` [Example 86], the IC50 under setting [1] came to 290 nM.
Take `O=C(Cc1ccc(-n2cnnn2)nc1)N1CCN2C[C@@H](c3ccc4nonc4c3)OC[C@@H]2C1` [Example 179, (3R,9aS)-3-(2,1,3-benzoxadiazol-5-yl)-8-{[6-(1H-tetrazol-1-vl)pvridin-3-yl]acetyl}octahydropyrazino[2,1-c][1,4]oxazine]: the midpoint of inhibition (Thallium Flux IC50), the IC50, lay at 180 nM.
Consider `Cc1c([C@H]2CN3CCN(C(=O)Cc4ccc(-n5cnnn5)nc4)C[C@H]3CN2)ccc2c1COC2=O` [Example 190, 4-methyl-5-[(3S,9aR)-8-{[6-(1H-tetrazol-1-yl)pyridin-3-yl]acetyl}octahydro-2H-pyrazino[1,2-a]pyrazin-3-yl]-2-benzofuran-1(3H)-one], for which, under setting [1], the half-maximal inhibitory concentration (IC50) was 390 nM.
Consider `Cc1c([C@@H]2CN3CCN(C(=O)Cc4ccc(-n5cnnn5)cn4)C[C@H]3CN2)ccc(F)c1C#N` [Example 195, 6-fluoro-2-methyl-3-[(3R,9aR)-8-{[5-(1H-tetrazol-1-yl)pyridin-2-yl]acetyl}octahydro-2H-pyrazino[1,2-a]pyrazin-3-yl]benzonitrile], for which, under setting [1], the concentration for half-maximal inhibition (IC50) was found to be 250 nM.
In the case of `Cc1nc(-n2cnnn2)nc(C)c1CC(=O)N1CCN2C[C@H](c3ccc(F)c(C#N)c3C)OC[C@H]2C1` [Example 151, 3-[(3S,9aR)-8-{[4,6-dimethyl-2-(1H-tetrazol-1-yl)pyrimidin-5-yl]acetyl}octahydropyrazino[2,1-c][1,4]oxazin-3-yl]-6-fluoro-2-methylbenzonitrile], the IC50 (Thallium Flux IC50) turned out to be 300 nM.
With `COc1c([C@@H]2CN3CCN(C(=O)Cc4ccc(-n5cnnn5)cn4)C[C@H]3CO2)ccc(F)c1C#N` [Example 62, 6-fluoro-2-methoxy-3-[(3R,9aS)-8-{[5-(1H-tetrazol-1-vl)pvridin-2-yl]acetyl}octahydropyrazino[2,1-c][1,4]oxazin-3-yl]benzonitrile], the IC50 under setting [1] was found to be 460 nM.
Still for that read-out and setting: to `Cc1c([C@H]2CN3CCN(C(=O)Cc4ccc(-n5cnnn5)nc4)C[C@H]3CS2)ccc2c1COC2=O` [Example 167, 4-methyl-5-[(3S,9aS)-8-{[6-(1H-tetrazol-1-yl)pyridin-3-yl]acetyl}octahydropyrazino[2,1-c][1,4]thiazin-3-yl]-2-benzofuran-1(3H)-one] belongs 420 nM; to `Cc1c([C@H]2CN3CCN(C(=O)Cc4ccc(-n5cnnn5)cn4)C[C@@H]3CO2)ccc(F)c1C#N` [Example 31, 6-fluoro-2-methyl-3-[(3S,9aR)-8-{[5-(1H-tetrazol-1-yl)pyridin-2-yl]acetyl}octahydropyrazino[2,1-c][1,4]oxazin-3-yl]benzonitrile], 160 nM.
As to `Cc1nc(-n2cnnn2)ccc1CC(=O)N1CCN2C[C@H](c3cccc(C#N)c3C)OC[C@@H]2C1` [Example 92, 2-methyl-3-[(3S,9aS)-8-{[2-methyl-6-(1H-tetrazol-1-yl)pyridin-3-yl]acetyl}octahydropyrazino[2,1-c][1,4]oxazin-3-yl]benzonitrile], half-maximal inhibition (Thallium Flux IC50) (IC50) was put at 200 nM.
With `C[C@@H]1Cc2cc([C@@H]3CN4CCN(C(=O)Cc5ccc(-n6cnnn6)nc5)C[C@H]4CN3)ccc2C(=O)O1` [Example 196, (3R)-3-methyl-6-[(3R,9aR)-8-{[6-(1H-tetrazol-1-yl)pyridin-3-yl]acetyl}octahydro-2H-pyrazino[1,2-a]pyrazin-3-yl]-3,4-dihydro-1H-isochromen-1-one], the 50% inhibitory concentration (IC50) under setting [1] is 230 nM.
Consider `Cc1nc(-n2cnnn2)nc(C)c1CC(=O)N1CCN2C[C@H](c3ccc(F)c(C#N)c3C)OC[C@@H]2C1` [Example 150, 3-[(3S,9aS)-8-{[4,6-dimethyl-2-(1H-tetrazol-1-yl)pyrimidin-5-yl]acetyl}octahydropyrazino[2,1-c][1,4]oxazin-3-yl]-6-fluoro-2-methylbenzonitrile], for which, under setting [1], the IC50 was 290 nM.
